Peptide text beside a SMILES is read from it. * marks the point of attachment. Cbz = O=C(OCc1ccccc1)*

Holding throughout (type): cell-based
Test [1] relates to ASB11 mRNA. The test can be described thus: RT-qPCR analysis of ASB11 mRNA expression in HCT116 cells treated with genotoxic agents. To be noted: p53-proficient HCT116 cells, 24 h; FIG. 5a. The procedure: (§1) FIG. 5. […] (a) RT-qPCR analysis of ASB11 mRNA expression in indicated HCT116 cells treated with indicated dosages of doxorubicin or 5-FU for 24 h. […] (b) Western blot analysis of BIK and ASB11 expression in indicated HCT116 cells treated as in (a). (c) HCT116 p53^+/+ cells stably expressing control or ASB11 shRNA were treated with 10 μM 5-FU for 24 h and then with cycloheximide for indicated time points. Cells were lysed for Western blot analysis of BIK expression and the relative amounts of BIK are indicated on the bottom. The expression levels of ASB11 and BIK in the stable lines are shown on the bottom panel. (d) Western blot analysis of IRE1α expression and RT-qPCR analysis of XBP1 mRNA splicing in indicated HCT116 cells treated with 3 μg/ml doxorubicin or 10 μM 5-FU for 24 h. (e) RT-qPCR analysis of ASB11 and XBPls mRNA expression in HCT116 cells transfected with XBP1s and/or treated with 3 μg/ml doxorubicin for 16 h. […] (f) Analysis of BIK ubiquitination in HCT116 cells transfected with indicated constructs and/or treated with 3 μg/ml doxorubicin for 16 h. Total mRNA was extracted from cells using TRIZOL reagent (Invitrogen), and equal amounts of RNA were reverse transcribed to cDNA using the iScript™ cDNA Synthesis Kit (Bio-Rad). Quantitative real-time PCR was performed using the Power SYBR Green PCR Master kit (Applied Biosystems). […]
(Real-time PCR tracks product formation cycle by cycle.)

For another test, the system named is XBP1 mRNA splicing. As to the kind of experiment: RT-qPCR analysis of XBP1 mRNA splicing in HCT116 cells. Particulars: 3 μg/ml doxorubicin or 10 μM 5-FU, 24 h, p53-dependent manner, FIG. 5d. As to the method:
as §1

The test system of test [2] is ASB11. The test can be described thus: Western blot analysis of ASB11 expression in HCT116 cells. Particulars: p53-dependent manner, FIG. 5b. As to the method:
(§2) FIG. 5. […] (a) RT-qPCR analysis of ASB11 mRNA expression in indicated HCT116 cells treated with indicated dosages of doxorubicin or 5-FU for 24 h. […] (b) Western blot analysis of BIK and ASB11 expression in indicated HCT116 cells treated as in (a). (c) HCT116 p53^+/+ cells stably expressing control or ASB11 shRNA were treated with 10 μM 5-FU for 24 h and then with cycloheximide for indicated time points. Cells were lysed for Western blot analysis of BIK expression and the relative amounts of BIK are indicated on the bottom. The expression levels of ASB11 and BIK in the stable lines are shown on the bottom panel. (d) Western blot analysis of IRE1α expression and RT-qPCR analysis of XBP1 mRNA splicing in indicated HCT116 cells treated with 3 μg/ml doxorubicin or 10 μM 5-FU for 24 h. (e) RT-qPCR analysis of ASB11 and XBPls mRNA expression in HCT116 cells transfected with XBP1s and/or treated with 3 μg/ml doxorubicin for 16 h. […]
(§3) Cell extraction was performed with RIPA lysis buffer containing 50 mM Tris (pH 8.0), 0.15 M NaCl, 1% NP40, 1% sodium deoxycholate, 0.1% SDS, 1 mM PMSF, 1 µg/ml aprotinin, and 1 µg/ml leupeptin. […] Immunoprecipitation was performed and analyzed as previously described. […] The beads were washed with RIPA lysis buffer and the bound proteins were analyzed by Western blot.

A further test deals with IRE1α. The test can be described thus: Western blot analysis of IRE1α expression in HCT116 cells. Particulars: 3 μg/ml doxorubicin or 10 μM 5-FU, 24 h, p53-dependent manner, FIG. 5d. As to the method: as §2, §3
The test system of test [3] is BIK. As to the kind of experiment: Cycloheximide-chase analysis of BIK protein stability in HCT116 p53+/+ cells. To be noted: p53-proficient HCT116 cells, 10 μM 5-FU 24 h then cycloheximide; FIG. 5c. As to the method: FIG. 5. […] (a) RT-qPCR analysis of ASB11 mRNA expression in indicated HCT116 cells treated with indicated dosages of doxorubicin or 5-FU for 24 h. […] (b) Western blot analysis of BIK and ASB11 expression in indicated HCT116 cells treated as in (a). (c) HCT116 p53^+/+ cells stably expressing control or ASB11 shRNA were treated with 10 μM 5-FU for 24 h and then with cycloheximide for indicated time points. Cells were lysed for Western blot analysis of BIK expression and the relative amounts of BIK are indicated on the bottom. The expression levels of ASB11 and BIK in the stable lines are shown on the bottom panel. (d) Western blot analysis of IRE1α expression and RT-qPCR analysis of XBP1 mRNA splicing in indicated HCT116 cells treated with 3 μg/ml doxorubicin or 10 μM 5-FU for 24 h. (e) RT-qPCR analysis of ASB11 and XBPls mRNA expression in HCT116 cells transfected with XBP1s and/or treated with 3 μg/ml doxorubicin for 16 h. […] (f) Analysis of BIK ubiquitination in HCT116 cells transfected with indicated constructs and/or treated with 3 μg/ml doxorubicin for 16 h.

For test [4], the system named is BIK. As to the kind of experiment: Western blot analysis of BIK expression in HCT116 cells. Particulars: p53-dependent manner, FIG. 5b. As to the method: as §2, §3
In general terms: A western blot detects proteins with antibodies after separation by electrophoresis.

The subject of test [5] is TNBC cells (Hs578T, MDA-MB157, MDA-MB468). The test can be described thus: MTT assay for viability of TNBC cells transfected with BIKDD and treated with IRE1α inhibitor. To be noted: combined with BIKDD. As to the method: FIG. 7. […] (a, c) MTT assay for the viability of indicated TNBC cells transfected with […] CMV-BIKDD (a) or VISA-BIKDD (c) and treated with 10 or 100 μM STF-083010 for 48 h. CI values are indicated. (b) Western blot analysis of cleaved PARP in indicated TNBC cells transfected with CMV-BIKDD and treated with 100 μM STF-083010 for 36 h. […] Tumor volume were measured at indicated days and plotted. Data are mean±s.d., *P<0.05; ***P<0.001 by two-way ANOVA with Turkey's post test, n=5. Tumors were surgically removed at day 49 and their sizes are shown on the right. (e) Mice orthotopically implanted with Hs578T cells and treated with VISA-BIKDD lipid nanoparticle together with STF-083010 or DMSO starting at day 28 after tumor cell implantation (see Materials and Methods). Tumor volume were measured at indicated days and plotted. Data are mean±s.d., ***P<0.001 by two-way ANOVA with Turkey's post test, n=5. Tumors were surgically removed at day 66 and their sizes are shown on the right.
MDA-MB157 and MDA-MB 468 cells were seeded at a density of 5×10^3 cells and Hs578T cells were at 2×10^3 cells in 96-well plates. Cells were transfected with BIKDD. In the next day, cells were treated with IRE1α inhibitor or DMSO for 48 h and then with 0.4 mg/ml methylthiazolyldiphenyltetrazolium bromide (MTT) (Sigma) for 2 h. Cells were dissolved in DMSO, followed by absorbance measurement at 590 nm. The combination index (CI) was calculated using the equation: CI=CA/IC50A+CB/IC50B. CA and CB represent the concentrations of the two agents for combined treatment. IC50A and IC50B are the IC50 values for each single treatment, which were determined by treating cells with various dosages of each agent followed by MTT assay. (CI<1) indicates a synergistic effect, (CI>1) corresponds to an antagonistic effect, and (CI=1) represents an additive effect.

Test [6] has as its system ASB11 mRNA. As to the kind of experiment: RT-qPCR analysis of ASB11 mRNA in H1299 cells treated with doxorubicin. To be noted: p53-transfected H1299 cells. The procedure:
Total mRNA was extracted from cells using TRIZOL reagent (Invitrogen), and equal amounts of RNA were reverse transcribed to cDNA using the iScript™ cDNA Synthesis Kit (Bio-Rad). Quantitative real-time PCR was performed using the Power SYBR Green PCR Master kit (Applied Biosystems). Amplification was performed on an ABI 7500 Fast Real-Time PCR system and GAPDH was used as an internal control.

In test [7] the test system is BIK. As to the kind of experiment: Western blot analysis of BIK levels in 293T cells. As to the method: FIG. 2. […] (d) Western blot analysis of BIK levels in indicated cells stably expressing control or ASB11 shRNAs.
Cell extraction was performed with RIPA lysis buffer containing 50 mM Tris (pH 8.0), 0.15 M NaCl, 1% NP40, 1% sodium deoxycholate, 0.1% SDS, 1 mM PMSF, 1 µg/ml aprotinin, and 1 µg/ml leupeptin. Western blot was performed with the standard protocol. For an efficient detection of BIK by Western blot, Tricine-SDS-PAGE was used. Western blot analyses of other proteins were performed with Glycine-SDS-PAGE. Immunoprecipitation was performed and analyzed as previously described. Briefly, cell lysates were incubated with primary antibody for overnight. The Pure Proteome Protein A/G Magnetic Beads (LSKMAGA/G10, EMD Millipore) were then added into cell lysates and incubated for 1.5 h. The beads were washed with RIPA lysis buffer and the bound proteins were analyzed by Western blot.

Test [8] deals with ASB11. As to the kind of experiment: Western blot analysis of ASB11 protein expression under ER stress. Particulars: multiple cell lines; 10 μg/ml tunicamycin or 200 nM thapsigargin, 16 h; FIG. 4a. The procedure: FIG. 4. ER stress stimulates BIK ubiquitination and degradation through ASB11 and p97. (a) Western blot analysis of BIK and ASB11 levels in 293T cells treated with 10 μg/ml tunicamycin or 200 nM of thapsigargin for 16 h. (b) Western blot analysis of BIK levels in 293T cells treated with 10 μg/ml tunicamycin for 12 h and then with 50 μg/ml cycloheximide for indicated time periods. The relative amounts of BIK are indicated on the bottom. (c, e) Analysis of endogenous (c) or exogenous (e) BIK ubiquitination in 293T cells (c) or 293T derivatives as in FIG. 2d (e) transfected with indicated constructs and treated with tunicamycin. (d) Western blot analysis of 293T derivatives as in FIG. 2d treated with 10 μg/ml tunicamycin for 16 h. (f) Western blot analysis of BIK levels in 293T derivatives co-treated with 10 μg/ml tunicamycin and MG132 for 16 h. (g) Western blot analysis of BIK expression in 293T cells co-treated with tunicamycin and 10 μM CB-5083 for 16 h. […]
as §3

As to `O=c1[nH]cc(F)c(=O)[nH]1` [5-FU, 5-fluorouracil], in the test on ASB11 mRNA [1], the “ASB11 mRNA level” value is recorded as “reduced”. Further, the “XBP1 mRNA splicing” value with XBP1 mRNA splicing is given as “reduced”. Also, the ASB11 protein level entry in the test on ASB11 [2] is given as “downregulated”. Also, the IRE1a level entry with IRE1α is given as “reduced”. Besides, the BIK protein stability result with BIK [3] was “increased”. The BIK protein level entry in the test on BIK [4] is on record as “upregulated”.
Consider `Cc1cc(=O)oc2c(C=O)c(O)ccc12` [4μ8C, 7-Hydroxy-4-methyl-2-oxo-2H-1-benzopyran-8-carboxaldehyde], for which the “killing effect of BIKDD on TNBC cells on combined administration” value in test [5] is “enhanced”.
`COc1cccc2c1C(=O)c1c(O)c3c(c(O)c1C2=O)C[C@@](O)(C(=O)CO)C[C@@H]3O[C@H]1C[C@H](N)[C@H](O)[C@H](C)O1` [doxorubicin]: the “ASB11 mRNA level” value in the test on ASB11 mRNA [1] is “reduced”. The “XBP1 mRNA splicing” value in the test with XBP1 mRNA splicing is “reduced”. For the same compound, the “ASB11 mRNA” value with ASB11 mRNA [6] is “downregulated”. Moreover, in the test with ASB11 [2], the ASB11 protein level result is recorded as “downregulated”. For the same compound, the IRE1a level result in the test on IRE1α is recorded as “reduced”. The BIK protein level entry in the test on BIK [4] is given as “upregulated”.
Consider `C/C=C(/C)C(=O)O[C@H]1C(C)=C2[C@H]([C@@H]1OC(=O)CCCCCCC)[C@@](C)(OC(C)=O)C[C@H](OC(=O)CCC)[C@@]1(O)[C@H]2OC(=O)[C@@]1(C)O` [thapsigargin], for which, in the test with BIK [7] (multiple cell lines, 10 μg/ml tunicamycin or 200 nM thapsigargin, 16 h, FIG. 4a), the BIK protein level entry was “reduced”. Moreover, the ASB11 protein expression result in the test with ASB11 [8] is “elevated”.
Take `CC(C)C[C@@H](C=O)NC(=O)[C@H](CC(C)C)NC(=O)[C@H](CC(C)C)NC(=O)OCc1ccccc1` [MG132] (Cbz-Leu-Leu-Leu-aldehyde): the “effect on the decrease of BIK protein level caused by ASB11 overexpression” value in the test on BIK [7] (293T cells transfected with ASB11, FIG. 2b) is on record as “reversed”.
Regarding `Cc1cc2c(C(N)=O)cccc2n1-c1nc2c(c(NCc3ccccc3)n1)COCC2` [CB-5083], the “effect on BIK downregulation induced by ER stress or ASB11 overexpression” value with BIK [7] (293T cells, 10 μM CB-5083, 16 h, co-treated with tunicamycin, FIG. 4g) was “abrogated”.

The values are drawn from patent US20200215153A1, “CANCER TREATMENT AND/OR PREVENTION THROUGH REGULATION OF UBIQUITINATION” (Academia Sinica, priority 2018, published 2020).
